Results on 13 compounds are retold here after patent publication US8269000B2, “Substituted pyrimidine and triazine compounds” (Gruenenthal GmbH, priority 2008, dated 2012).

One test concerns the target T1, human B1R (Homo sapiens, UniProt P46663).
T1 construct: expressed in transfected cells; host or cells: CHO K1 cells
T1 sequence (P46663 1-353): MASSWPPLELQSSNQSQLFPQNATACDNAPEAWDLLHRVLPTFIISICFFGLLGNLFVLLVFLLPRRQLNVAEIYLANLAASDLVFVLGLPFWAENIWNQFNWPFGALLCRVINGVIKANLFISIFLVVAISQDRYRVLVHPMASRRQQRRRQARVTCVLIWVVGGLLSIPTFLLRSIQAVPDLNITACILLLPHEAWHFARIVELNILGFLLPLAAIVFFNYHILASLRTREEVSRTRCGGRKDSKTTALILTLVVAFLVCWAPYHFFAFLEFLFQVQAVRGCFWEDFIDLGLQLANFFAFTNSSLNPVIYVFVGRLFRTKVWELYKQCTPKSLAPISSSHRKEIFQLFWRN
In words: FLIPR Ca2+ functional study on bradykinin receptor 1 (hB1R CHO K1 cells). The class given is cell-based. The conditions noted are these: % inhibition human B1R at 10 μM, read-out: % inh. (hum. B1R) 10 μM. The procedure:
The agonistic or antagonistic activity of substances can be quantified on the bradykinin receptor 1 (B1R) of the species human and rat using ectopically expressing cell lines (CHO K1 cells) and with the aid of a Ca^2+-sensitive dye (Fluo-4) using a fluorescent imaging plate reader (FLIPR). The indication in % activation is based on the Ca^2+ signal after addition of Lys-Des-Arg^9-bradykinin (0.5 nM) or Des-Arg^9-bradykinin (100 nM). Antagonists lead to suppression of the Ca^2+ influx after the addition of the agonist. % Inhibition compared with the maximum achievable inhibition is indicated.
The agonistic or antagonistic activity of substances can be determined on the bradykinin receptor 1 (B1R) of the species human and rat using the following assay. According to this assay, the Ca^2+ influx through the channel is quantified with the aid of a Ca^2+-sensitive dye (Fluo-4 type, Molecular Probes Europe BV, Leiden, Netherlands) using a Fluorescent Imaging Plate Reader (FLIPR, Molecular Devices, Sunnyvale, USA).
Chinese hamster ovary cells (CHO K1 cells) which have been stably transfected with the human B1R gene (hB1R cells) or with the B1R gene of the rat (rB1R cells) are used. For functional studies, the cells are plated out on black 96-well plates having a clear base (BD Biosciences, Heidelberg, Germany or Greiner, Frickenhausen, Germany) in a density of 20,000-35,000 cells/well. The cells are left overnight at 37° C. and with 5% CO2 in culture medium (hB1R cells: Nutrient Mixture Ham's F12, Gibco Invitrogen GmbH, Karlsruhe, Germany or DMEM, Sigma-Aldrich, Taufkirchen, Germany; rB1R cells: D-MEM/F12, Gibco Invitrogen GmbH, Karlsruhe, Germany), with 10 vol.% FBS (fetal bovine serum, Gibco Invitrogen GmbH, Karlsruhe, Germany or PAN Biotech GmbH, Aidenbach, Germany). On the following day, the cells are loaded for 60 minutes at 37° C. with 2.13 μM Fluo-4 (Molecular Probes Europe BV, Leiden, Netherlands) in HBSS buffer (Hank's buffered saline solution, Gibco Invitrogen GmbH, Karlsruhe, Germany) […] (Sigma-Aldrich, Taufkirchen, Germany) and 10 mM HEPES (Sigma-Aldrich, Taufkirchen, Germany). The plates are then washed twice with HBSS buffer, and HBSS buffer additionally containing 0.1% BSA (bovine serum albumin; Sigma-Aldrich, Taufkirchen, Germany), 5.6 mM glucose and 0.05% gelatin (Merck KGaA, Darmstadt, Germany) is added to the plates. After incubation for a further 20 minutes at room temperature, the plates are inserted into the FLIPR for Ca^2+ measurement. Alternatively, washing is carried out with buffer A (15 mM HEPES, 80 mM NaCl, 5 mM KCl, 1.2 mM CaCl2, 0.7 mM MgSO4, 2 g/l glucose, 2.5 mM probenecid) followed by loading with buffer A with added 2.5 μM Fluo-4 and 0.025% Pluronic F127 (Sigma-Aldrich, Taufkirchen, Germany). The cells are then washed twice with buffer A and incubated for 30 minutes at room temperature with buffer A additionally containing 0.05% BSA and 0.05% gelatin and are then inserted into the FLIPR for Ca^2+ measurement. The Ca^2+-dependent fluorescence is measured before and after the addition of substances (λex=488 nm, λem=540 nm). Quantification is carried out by measuring the highest fluorescence intensity (FC, fluorescence counts) over time.
The FLIPR protocol consists of two substance additions. Test substances (10 μM) are first pipetted onto the cells and the Ca^2+ influx is compared with the control (hB1R: Lys-Des-Arg^9-bradykinin>=50 nM; rB1R: Des-Arg^9-bradykinin 10 μM). This gives the activation in %, based on the Ca^2+ signal after addition of Lys-Des-Arg^9-bradykinin (>=50 nM) or Des-Arg^9-bradykinin (10 μM). After 10-20 minutes' incubation, Lys-Des-Arg^9-bradykinin (hB1R) or Des-Arg^9-bradykinin (rB1R) is applied in the concentration of the EC80, and the influx of Ca^2+ is likewise determined. Antagonists lead to suppression of the Ca^2+ influx. The % inhibition compared with the maximum achievable inhibition is calculated. […]

Another test deals with T2, rat B1R (Rattus norvegicus, UniProt P97583).
T2 construct: expressed in transfected cells; host or cells: CHO K1 cells
T2 sequence (P97583 1-337): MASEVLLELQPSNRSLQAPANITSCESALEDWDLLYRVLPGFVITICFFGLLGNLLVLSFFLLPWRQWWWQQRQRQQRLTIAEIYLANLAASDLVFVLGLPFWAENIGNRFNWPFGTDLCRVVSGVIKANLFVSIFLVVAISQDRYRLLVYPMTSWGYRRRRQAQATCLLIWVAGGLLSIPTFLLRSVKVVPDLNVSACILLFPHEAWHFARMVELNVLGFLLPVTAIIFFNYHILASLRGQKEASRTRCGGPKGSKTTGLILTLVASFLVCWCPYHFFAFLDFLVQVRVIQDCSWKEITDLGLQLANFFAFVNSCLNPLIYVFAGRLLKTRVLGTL
As to the kind of experiment: FLIPR Ca2+ functional study on bradykinin receptor 1 (rB1R CHO K1 cells). The class given is cell-based. The conditions noted are these: for inhibition at 10 µM: CHO-K1, % inhibition rat B1R at 10 μM, read-out: % inh. (rat B1R) 10 μM. Put shortly:
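CHO K1 cells stably expressing human or rat B1R were loaded with Fluo-4 and read on FLIPR (ex 488/em 540 nm, peak counts). Test compound (10 μM, or a concentration range for IC50) was added first for % activation versus control agonist; after 10-20 min, EC80 Lys-Des-Arg9-bradykinin (human) or Des-Arg9-bradykinin (rat) was added, giving % inhibition of maximum. n=2-3, N≥2.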

Where a name gives a salt, the structure may show the parent alone.

As to `COc1cc(C)c(S(=O)(=O)N(C)CCOc2nccc(N3CCC(CCN4CCCC4)CC3)n2)c(C)c1` [Example G-001, 4-methoxy-N,2,6-trimethyl-N-[2-[[4-[4-(2-1-pyrrolidinylethyl)-1-piperidinyl]-2-pyrimidinyl]oxy]ethyl]benzenesulfonamide], the inhibition at 10 µM was determined as 84% at human B1R and 99% at rat B1R.

For the compound `COc1cc(C)c(S(=O)(=O)N(C)CCOc2nccc(N3CCN(c4ccncc4)CC3)n2)c(C)c1` [Example G-002, 4-methoxy-N,2,6-trimethyl-N-[2-[[4-[4-(4-pyridyl)-1-piperazinyl]-2-pyrimidinyl]oxy]ethyl]benzenesulfonamide], the inhibition at 10 µM at human B1R is 97%; on rat B1R, 109%.

On to `COc1cc(C)c(S(=O)(=O)N(C)CCOc2nccc(N(C)CCN3CCC(c4ccccc4)(N(C)C)CC3)n2)c(C)c1` [Example G-003, N-[2-[[4-[2-(4-dimethylamino-4-phenyl-1-piperidinyl)ethyl-methylamino]-2-pyrimidinyl]oxy]ethyl]-4-methoxy-N,2,6-trimethylbenzenesulfonamide], for which the inhibition at 10 µM on human B1R stood at 101%. Moreover, on rat B1R (% inhibition rat B1R at 10 μM, 10 µM), the “% inh. (rat B1R) 10 μM” value was 112%.

As to `COc1cc(C)c(S(=O)(=O)N2CCCCC2COc2nccc(N3CCC(OCCN4CCCC4)(c4cccnc4)CC3)n2)c(C)c1` (centres unmarked) [Example G-004, 2-[[1-(4-methoxy-2,6-dimethylphenyl)sulfonyl-2-piperidinyl]methoxy]-4-[4-(3-pyridyl)-4-(2-1-pyrrolidinylethoxy)-1-piperidinyl]pyrimidine], the inhibition at 10 µM was 99% at human B1R and 73% at rat B1R.

Consider `COc1cc(C)c(S(=O)(=O)N(CCOc2nccc(N3CCC4(CCN(c5ccncc5)CC4)CC3)n2)C2CC2)c(C)c1` [Example G-005, N-cyclopropyl-4-methoxy-2,6-dimethyl-N-[2-[[4-[9-(4-pyridyl)-3,9-diazaspiro[5.5]undecan-3-yl]-2-pyrimidinyl]oxy]ethyl]benzenesulfonamide hydrochloride], for which the inhibition at 10 µM at human B1R was found to be 99%; at rat B1R, 96%.

For `COc1cc(C)c(S(=O)(=O)N(CCOc2nccc(NCCC3CCN(c4ccncc4)CC3)n2)C2CC2)c(C)c1` [Example G-006, N-cyclopropyl-4-methoxy-2,6-dimethyl-N-[2-[[4-[2-[1-(4-pyridyl)-4-piperidinyl]ethylamino]-2-pyrimidinyl]oxy]ethyl]benzenesulfonamide], the inhibition at 10 µM came out at 99% at human B1R and 94% at rat B1R.

As for `COc1cc(C)c(S(=O)(=O)N(CCOc2nccc(N3CCC(OCCN4CCCC4)(c4cccnc4)CC3)n2)C2CC2)c(C)c1` [Example G-007, N-cyclopropyl-4-methoxy-2,6-dimethyl-N-[2-[[4-[4-(3-pyridyl)-4-(2-1-pyrrolidinylethoxy)-1-piperidinyl]-2-pyrimidinyl]oxy]ethyl]benzenesulfonamide], the inhibition at 10 µM at human B1R was determined as 100%; at rat B1R, 97%.

In the case of `COc1cc(C)c(S(=O)(=O)N(CCOc2nccc(N3CCC(O)(c4cccnc4)CC3)n2)C2CC2)c(C)c1` [Example G-008, N-cyclopropyl-N-[2-[[4-[4-hydroxy-4-(3-pyridyl)-1-piperidinyl]-2-pyrimidinyl]oxy]ethyl]-4-methoxy-2,6-dimethylbenzenesulfonamide], the inhibition at 10 µM at human B1R worked out at 77%; at rat B1R, 98%.

Regarding `Cc1cccc(Cl)c1S(=O)(=O)N(CCOc1nccc(N2CCC3(CCN(c4ccncc4)CC3)CC2)n1)C1CC1` [Example G-009, 2-chloro-N-cyclopropyl-6-methyl-N-[2-[[4-[9-(4-pyridyl)-3,9-diazaspiro[5.5]undecan-3-yl]-2-pyrimidinyl]oxy]ethyl]benzenesulfonamide], the results for the inhibition at 10 µM on human B1R and at rat B1R were 97% and 91%, respectively.

Consider `O=S(=O)(c1ccccc1C(F)(F)F)N(CCOc1nccc(N2CCC3(CCN(c4ccncc4)CC3)CC2)n1)C1CC1` [Example G-010, N-cyclopropyl-N-[2-[[4-[9-(4-pyridyl)-3,9-diazaspiro[5.5]undecan-3-yl]-2-pyrimidinyl]oxy]ethyl]-2-(trifluoromethyl)benzenesulfonamide], for which the results for the inhibition at 10 µM on human B1R and on rat B1R were 98% and 89%, respectively.

On to `COc1cc(C)c(S(=O)(=O)N2C[C@H](F)C[C@H]2COc2nccc(N3CCC4(CCN(c5ccncc5)CC4)CC3)n2)c(C)c1` [Example G-011, 3-[2-[[(2S,4R)-4-fluoro-1-(4-methoxy-2,6-dimethylphenyl)sulfonyl-2-pyrrolidinyl]methoxy]-4-pyrimidinyl]-9-(4-pyridyl)-3,9-diazaspiro[5.5]undecane], for which the inhibition at 10 µM at human B1R and on rat B1R was 99% each time.

On to `COc1cc(C)c(S(=O)(=O)N(CCOc2nccc(N3CCC(Oc4ccncc4)CC3)n2)C2CC2)c(C)c1` [Example G-012, N-cyclopropyl-4-methoxy-2,6-dimethyl-N-[2-[[4-[4-(4-pyridyloxy)-1-piperidinyl]-2-pyrimidinyl]oxy]ethyl]benzenesulfonamide], for which the inhibition at 10 µM at human B1R came to 99%; at rat B1R, 97%.

For `COc1cc(C)c(S(=O)(=O)N(CCOc2nccc(N3CCc4cc(CN5CCC5)ccc4C3)n2)C2CC2)c(C)c1` [Example G-013, N-[2-[[4-[6-(1-azetidinylmethyl)-3,4-dihydro-1H-isoquinolin-2-yl]-2-pyrimidinyl]oxy]ethyl]-N-cyclopropyl-4-methoxy-2,6-dimethylbenzenesulfonamide], the inhibition at 10 µM on human B1R is 92%; on rat B1R, 102%.
